Experimental findings from US20260207616A1, “COMBINATION THERAPIES FOR TREATMENT OF HEARING DISORDERS” (GATEWAY BIOTECHNOLOGY, INC., priority 2023, published 2026) are described below.

This test deals with tinnitus positive mice. As to the kind of experiment: go/no-go trials, sound-based avoidance detection (SBAD) in noise-induced tinnitus mice. The following applies: intraperitoneal injection; for dosage reached before the agent alone was effective in treating the animals tinnitus: single agent. Type of test: in vivo. The procedure: With reference to FIGS. 1A-1D, single drug treatment of tinnitus is evaluated using the go/no-go methodology further elaborated upon in Example 4. With reference to FIGS. 2A-2B, multi drug treatment of tinnitus is evaluated using the go/no-go methodology further elaborated upon in Example 4. […] Using a shuttle box divided into two compartments, mice were trained to cross from side to side with sound cues in the “Go” trials and remain still in the absence of sound in the “No-Go” trials for 15 days. […] The sound cues were randomly played as white noise or narrow-band noise at 8,10,12.5,16, and 29 kHz with sound intensities randomly at 75, 80, or 85 dB. […] Additionally, a hurdle was added on training 11 to reinforce the training. After the 15th training day, mice were tested for 3 days to obtain a baseline score to be compared after noise exposure, as well as retraining for 3 days. Following the successful completion of training so that mice reached a high percentage of success in the trials, the mice were exposed to a noise-induced trauma for tinnitus over a two day period. To ensure that the mice still have their hearing, one ear was protected with an ear plug, while the other ear was exposed to the noise. The mice were placed in a sound booth where they were exposed to 120 dB broadband noise at 4-25 kHz for two hours. Following the noise exposure, the mice were housed for one month, and then tested to see if they have developed tinnitus. In these testing periods, the mice were tested for three days in the shuttle boxes, where they underwent the Go and No-Go trials, however in the No-Go trials the mice were not shocked, as it is expected that mice with tinnitus would cross compartments in the absence of a sound cue. The mice were continued to be shocked in the Go trials in order to ensure that they have retained their hearing and can hear the sound cues. […] To insure there is a significant difference in the No-Go trial scores, chi-square tests were completed comparing the post-noise exposure tests to the baseline tests. However, if tinnitus is not present in the mice, tests were done after waiting one more month, and another if needed. […] The Go and No-Go scores for the tests were compared using chi-square tests in Social Science Statistics and JASP. The chi-square tests were used first to determine whether mice were tinnitus positive by comparing the No-Go baseline scores pre-noise exposure to the No-Go post-noise exposure scores, with a significant difference (p-value<0.05) in at least 2 of the tests indicating a tinnitus positive mouse. Following this conclusion, the mice were tested accordingly to determine if their No-Go scores could be improved by different drug doses and combinations. […] The No-Go scores at 3 months post-noise exposure were compared to baselines to assess for tinnitus. Mice had significant decreases on all 3 days of testing. This indicates these mice had tinnitus. One or more mice is a control animal. In looking at the Go scores for the tinnitus animals when tested with the specified drugs, mice had significant decreases in their scores when. […] In contrast, a lack of change in the No-Go scores indicates the first and/or second agent was not effective in treating the animal's tinnitus, and decrease in the score may indicate that the animal's tinnitus was worsened.

As to `NC(=O)N1c2ccccc2C=Cc2ccccc21` [CBZ, carbamazepine], the “correct percentage result in the no-go trial” value (CBZ 5 mg/kg, within a margin of error of the saline dosed mice) is “less than 70%” and the “correct percentage result in the no-go trial” value (CBZ 8 mg/kg) is “less than 80%”.
Turning to `COCCOC(=O)C1=C(C)NC(C)=C(C(=O)OC(C)C)C1c1cccc([N+](=O)[O-])c1` (centres unmarked) [NMDP, nimodipine], the “dosage reached before the agent alone was effective in treating the animals tinnitus” value is “about 30 mg/kg”. Further, for the setting “NMDP 30 mg/kg”, the “correct percentage result in the no-go trial” value is reported as about 95%. For the same molecule, the “correct percentage result in the no-go trial” value (NMDP 50 mg/kg) is on record as about 95%.
For `CCOC(=O)C1=C(COCCN)NC(C)=C(C(=O)OC)C1c1ccccc1Cl` (centres unmarked) [AML, amlodipine], the “correct percentage result in the no-go trial” value is, setting by setting: (AML 5 mg/kg) about 90%; (AML 8 mg/kg) about 95%.
Regarding `CCC1(C)CC(=O)NC1=O` (centres unmarked) [ESM, ethosuximide], under “ESM 300 mg/kg”, the “correct percentage result in the no-go trial” value is about 70%.
Turning to `COc1ccc2cc1Oc1ccc(cc1)C[C@H]1c3cc(c(OC)cc3CCN1C)Oc1c(OC)c(OC)cc3c1[C@H](C2)N(C)CC3` [TET, tetrandrine], the “dosage reached before the agent alone was effective in treating the animals tinnitus” value is “about 30 mg/kg”. For the same molecule, the “correct percentage result in the no-go trial” value (TET 60 mg/kg) is on record as about 90%. For the same molecule, the “correct percentage result in the no-go trial” value (TET 90 mg/kg) is about 95%.
